Data reported in patent publication US10689384B2, “Imidazo[1,2-a]quinoxalines and derivatives thereof for the treatment of cancer” (Universite de Montpellier, priority 2014, dated 2020).
One block for each compound: values may come before it.

Experiments:
human cancer cell lines = assay: In vitro cytotoxicity study, Summarized results 2 (cell line not given); type: cell-based; details: Table 4, Summarized results 2, cell line not stated
Protocol: (§1) The goal of this protocol is to study the effects of the compounds on the proliferation of various human cancer cell lines in order to evaluate the EC50 and their activity in cellulo.
(§2) The cells are seeded the day before treatment in 96 well plates. Each compound concentration is tested in triplicate. A 96 well plate can contain 3 compounds.
(§3) Stock solutions of the tested compounds are prepared at 10 mM in 100% DMSO and stored at […].
(§4) The analysis is carried out by using the GraphPad PRISM 5.0 software.
(§5) Day 1: the cells are seeded one day before treatment with the compounds in 96 well plates. Cell suspensions for each cancer cell line are prepared with a specific density in a specific culture medium (see preceding table). Next, 100 µL of cell suspension is distributed per well (1×96 well plate per cell line).
(§6) Day 2: 24 hours later, the […] compounds or controls (DMSO) are added to the cells ([…] of a compound solution in its specific medium with a final DMSO concentration of 0.15%).
(§7) Each compound concentration is tested in triplicate (6 concentrations between 10^−9 M and 10^−5 M per compound). The cells are incubated at 37° C. for 72 hours with no new treatment.
(§8) Day 5: 15 minutes before incubation of the cells with MTT (3-[4,5-dimethylthiazol-2-yl]-2,5-diphenyltetrazolium bromide), 10% SDS is added to the control wells to obtain a final concentration of 1%. The positive control of inhibition of proliferation is 1% SDS.
(§9) Once the medium is removed, 100 µL of a solution of MTT in fresh medium is added to each well (10 μL of 10×MTT solution at 5 mg/mL in PBS +[…] of fresh medium) and the plates are incubated for 4 hours at 37° C.
(§10) The MTT reaction is quenched and the medium is homogenized by addition of […] of 10% SDS/0.01 M HCl solution placed in each well. The medium is incubated for 2 hours at 37° C. before measuring its absorbance. Absorbance is measured at 570 nm.

CFPAC-1 = assay: In vitro cytotoxicity study, inhibition of cell growth (MTT); type: cell-based; details: Homo sapiens, CFPAC-1, pancreas, 72 hours
Protocol: as §1, §2
(§11) Cell suspensions for each cancer cell line are prepared in culture medium with a specific density of the specific cell (see the following table). Then, 100 µL of cell suspension is spread per well (plate per one cell line).
as §3, §4, §5, §6, §7, §8, §9, §10

COLO-205 = assay: as above; type: cell-based; details: Homo sapiens, COLO-205, colon, 72 hours
Protocol: as §1, §2, §11, §3, §4, §5, §6, §7, §8, §9, §10

Capan-1 = assay: as above; type: cell-based; details: Homo sapiens, Capan-1, pancreas, 72 hours
Protocol: as §1, §2, §11, §3, §4, §5, §6, §7, §8, §9, §10

T-47D = assay: as above; type: cell-based; details: Homo sapiens, T47D, breast, 72 hours
Protocol: as §1, §2, §11, §3, §4, §5, §6, §7, §8, §9, §10

PC-3 = assay: as above; type: cell-based; details: Homo sapiens, PC-3, prostate, 72 hours
Protocol: as §1, §2, §11, §3, §4, §5, §6, §7, §8, §9, §10

A2058 = assay: as above; type: cell-based; details: Homo sapiens, A2058, melanoma, 72 hours
Protocol: as §1, §2, §11, §3, §4, §5, §6, §7, §8, §9, §10

AsPC-1 = assay: as above; type: cell-based; details: Homo sapiens, ASPC1, AsPC-1, pancreas, 72 hours
Protocol: as §1, §2, §11, §3, §4, §5, §6, §7, §8, §9, §10

MEWO = assay: as above; type: cell-based; details: Homo sapiens, melanoma, 72 hours
Protocol: as §1, §2, §11, §3, §4, §5, §6, §7, §8, §9, §10

IPC298 = assay: as above; type: cell-based; details: Homo sapiens, IPC-298, IPC298, melanoma, 72 hours
Protocol: as §1, §2, §11, §3, §4, §5, §6, §7, §8, §9, §10

BxPC3 = assay: as above; type: cell-based; details: Homo sapiens, BXPC-3, BxPC3, pancreas, 72 hours
Protocol: as §1, §2, §11, §3, §4, §5, §6, §7, §8, §9, §10

PF382 = assay: as above; type: cell-based; details: Homo sapiens, PF-382, PF382, lymphoid, 72 hours
Protocol: as §1, §2, §11, §3, §4, §5, §6, §7, §8, §9, §10

HepG2 = assay: as above; type: cell-based; details: Homo sapiens, HepG2, liver, 72 hours
Protocol: as §1, §2, §11, §3, §4, §5, §6, §7, §8, §9, §10

Calu-1 = assay: as above; type: cell-based; details: Homo sapiens, Calu-1, lung, 72 hours
Protocol: as §1, §2, §11, §3, §4, §5, §6, §7, §8, §9, §10

LoVo = assay: as above; type: cell-based; details: Homo sapiens, colon, 72 hours
Protocol: as §1, §2, §11, §3, §4, §5, §6, §7, §8, §9, §10

A375 = assay: as above; type: cell-based; details: Homo sapiens, A-375, A375, melanoma, 72 hours
Protocol: as §1, §2, §11, §3, §4, §5, §6, §7, §8, §9, §10

purified tubulin = biological target: T1, purified tubulin (Sus scrofa, UniProt P02550+P02554); assay: Effect on the polymerization of purified tubulin (turbidimetry at 350 nm); type: biochemical, pig; details: 2.4 μM tubulin, 37° C.
T1 construct: Tubulin is prepared from pig brain; from tissue; host or cells: pig brain
T1 sequence (P02550 whole entry): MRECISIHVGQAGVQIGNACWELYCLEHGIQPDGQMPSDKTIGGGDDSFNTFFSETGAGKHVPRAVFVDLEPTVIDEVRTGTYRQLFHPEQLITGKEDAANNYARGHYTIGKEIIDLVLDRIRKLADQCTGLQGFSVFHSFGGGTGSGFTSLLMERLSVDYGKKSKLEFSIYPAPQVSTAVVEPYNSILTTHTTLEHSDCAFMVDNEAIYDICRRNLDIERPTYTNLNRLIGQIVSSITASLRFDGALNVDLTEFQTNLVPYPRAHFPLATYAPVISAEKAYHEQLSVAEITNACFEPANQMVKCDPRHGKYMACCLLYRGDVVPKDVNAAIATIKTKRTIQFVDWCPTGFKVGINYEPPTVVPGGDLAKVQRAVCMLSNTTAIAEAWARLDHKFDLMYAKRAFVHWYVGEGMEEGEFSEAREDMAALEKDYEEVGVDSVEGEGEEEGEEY
T1 sequence (P02554 whole entry): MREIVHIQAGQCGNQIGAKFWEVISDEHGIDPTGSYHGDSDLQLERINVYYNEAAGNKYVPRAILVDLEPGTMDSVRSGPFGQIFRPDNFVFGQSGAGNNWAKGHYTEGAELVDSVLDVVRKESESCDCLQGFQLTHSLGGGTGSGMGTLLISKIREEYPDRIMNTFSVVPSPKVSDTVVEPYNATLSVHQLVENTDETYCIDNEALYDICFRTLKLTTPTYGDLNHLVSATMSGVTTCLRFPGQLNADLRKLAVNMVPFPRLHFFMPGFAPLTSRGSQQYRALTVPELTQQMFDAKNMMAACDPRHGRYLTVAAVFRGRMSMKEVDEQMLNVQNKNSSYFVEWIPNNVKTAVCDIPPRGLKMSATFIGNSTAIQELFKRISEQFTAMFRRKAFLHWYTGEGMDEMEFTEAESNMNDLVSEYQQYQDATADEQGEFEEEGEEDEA
Protocol: FIG. 1. Study of the innovative effect of compounds of the selection patent on the polymerization of purified tubulin. This is a comparative study of the effect on the polymerization of purified tubulin by compounds of the selection patent compared to that of the compounds of the patent FR 2,921,927. Polymerized tubulin absorbs at 350 nm.
Tubulin is prepared from pig brain according to the purification process described by Williams and Lee (1982). Tubulin polymerization is monitored by turbidimetry at 350 nm with an MC2 spectrophotometer (Safas, Monaco) equipped with a heat-jacketed cuvette holder. The reaction mixture was prepared at 0° C., and contains PEM buffer, 25% glycerol (v/v), 1 mM GTP, and 2.4 μM tubulin. The GTP and the tubulin are added at the last minute. […] The same volume of DMSO alone was used as a negative control. The final volume of the sample is […]. The reaction is initiated by placing the cuvette in the cell compartment of the spectrophotometer thermostated at 37° C. Ice is added 45 minutes later to launch depolymerization in order to confirm the specificity of the signal.

SMILES: NCCNc1nc2ccccc2n2c(-c3ccc(O)c(O)c3)cnc12 [EAPB 02306s, 2-((1-(3,4-Dihydroxyphenyl)imidazo[1,2-a]quinoxalin-4-yl)amino)ethylammonium chloride]
IC50 (human cancer cell lines): 1700 nM

SMILES: COc1ccc(-c2cnc3c(NCCNC(=O)OC(C)(C)C)nc4ccccc4n23)cc1OC [EAPB 02211, tert-Butyl (2-((1-(3,4-dimethoxyphenyl)imidazo[1,2-a]quinoxalin-4-yl)amino)ethyl)carbamate]
IC50 (human cancer cell lines; Homo sapiens): > 10000 nM

SMILES: CNc1nc2cc(OC(F)(F)F)ccc2n2c(-c3ccc(OC)c(OC)c3)cnc12 [EAPB 02203-7b, 1-(3,4-Dimethoxyphenyl)-N-methyl-7-(trifluoromethoxy)imidazo[1,2-a]quinoxalin-4-amine]
IC50 (human cancer cell lines; Homo sapiens): 3490 nM

SMILES: CNc1nc2ccc(C(F)(F)F)cc2n2c(-c3ccc(OC)c(OC)c3)cnc12 [EAPB 02203-8a, 1-(3,4-Dimethoxyphenyl)-N-methyl-8-(trifluoromethyl)imidazo[1,2-a]quinoxalin-4-amine]
IC50 (human cancer cell lines; Homo sapiens): > 10000 nM

SMILES: CNc1nc2ccccc2n2c(Br)cnc12 [CPA 8, 1-Bromo-N-methylimidazo[1,2-a]quinoxalin-4-amine]
IC50 (human cancer cell lines; Homo sapiens): 2350 nM

SMILES: Nc1nc2ccccc2n2c(-c3ccc(O)c(O)c3)cnc12 [EAPB02302, 1-(3,4-Dihydroxyphenyl)imidazo[1,2-a]quinoxalin-4-amine]
EC50 (CFPAC-1): 67 nM
EC50 (COLO-205): 44 nM
EC50 (Capan-1): 206 nM
EC50 (T-47D): 78 nM
EC50 (PC-3): 56 nM
EC50 (A2058): 13 nM
EC50 (AsPC-1): 1820 nM
EC50 (MEWO): 10 nM
EC50 (IPC298): 75 nM
EC50 (BxPC3): 25 nM
EC50 (PF382): 29 nM
EC50 (HepG2): 267 nM
EC50 (Calu-1): 14 nM
EC50 (LoVo): 44 nM
EC50 (A375): 60 nM

SMILES: CNc1nc2cc(OC(F)(F)F)ccc2n2c(-c3ccc(O)c(O)c3)cnc12 [EAPB 02303-7b, 4-(4-(Methylamino)-7-(trifluoromethoxy)imidazo[1,2-a]quinoxalin-1-yl)benzene-1,2-diol]
IC50 (human cancer cell lines; Homo sapiens): 199 nM

SMILES: NCCCNc1nc2ccccc2n2c(-c3ccc(O)c(O)c3)cnc12 [EAPB 02309, 4-(4-((3-Aminopropyl)amino)imidazo[1,2-a]quinoxalin-1-yl)benzene-1,2-diol]
IC50 (human cancer cell lines; Homo sapiens): 5590 nM

SMILES: COc1ccc(-c2cnc3c(NC(CC(C)C)C(=O)OC(C)(C)C)nc4ccccc4n23)cc1OC (stereo not shown) [EAPB 02222]
IC50 (human cancer cell lines; Homo sapiens): > 10000 nM

SMILES: CNc1nc2cc(C(F)(F)F)ccc2n2c(-c3ccc(O)c(O)c3)cnc12 [EAPB 02303-7a, 4-(4-(Methylamino)-7-(trifluoromethyl)imidazo[1,2-a]quinoxalin-1-yl)benzene-1,2-diol]
IC50 (human cancer cell lines; Homo sapiens): 6910 nM

SMILES: CNc1nc2ccc(OC(F)(F)F)cc2n2c(-c3ccc(O)c(O)c3)cnc12 [EAPB 02303-8b]
IC50 (human cancer cell lines; Homo sapiens): > 10000 nM

SMILES: COc1ccc(-c2cnc3c(NC(C(=O)OC(C)(C)C)C(C)C)nc4ccccc4n23)cc1OC (stereo not shown) [EAPB 02220]
IC50 (human cancer cell lines; Homo sapiens): > 10000 nM

Effect on polymerization of purified tubulin (absorbance level at 350 nm) (purified tubulin): leaves it unchanged
SMILES: CNc1nc2ccccc2n2c(-c3ccc(O)c(O)c3)cnc12 [EAPB 02303, 1-(3,4-Dihydroxyphenyl)-N-methylimidazo[1,2-a]quinoxalin-4-amine]
EC50 (CFPAC-1): 12 nM
EC50 (COLO-205): 38 nM
EC50 (Capan-1): 154 nM
EC50 (T-47D): 13 nM
EC50 (PC-3): 12 nM
EC50 (A2058): 4 nM
EC50 (AsPC-1): 957 nM
EC50 (MEWO): 3 nM
EC50 (IPC298): 40 nM
EC50 (BxPC3): 11 nM
EC50 (PF382): 7 nM
EC50 (HepG2): 247 nM
EC50 (Calu-1): 4 nM
EC50 (LoVo): 45 nM
EC50 (A375): 10 nM
IC50 (human cancer cell lines; Homo sapiens): < 3 nM
